Experimental data published in patent US5043328A, “Formulations containing unsaturated fatty acids for the synthesis of prostaglandins and hydroxy-fatty acids in biological systems” (priority 1986, dated 1991).
Like-named read-outs stand apart in the source and are kept apart here.

Tests used:
[1] = molecular target: T1, enzyme (from seminal vesicles of sheep) (Ovis aries, UniProt P05979)
T1 sequence (P05979 25-600): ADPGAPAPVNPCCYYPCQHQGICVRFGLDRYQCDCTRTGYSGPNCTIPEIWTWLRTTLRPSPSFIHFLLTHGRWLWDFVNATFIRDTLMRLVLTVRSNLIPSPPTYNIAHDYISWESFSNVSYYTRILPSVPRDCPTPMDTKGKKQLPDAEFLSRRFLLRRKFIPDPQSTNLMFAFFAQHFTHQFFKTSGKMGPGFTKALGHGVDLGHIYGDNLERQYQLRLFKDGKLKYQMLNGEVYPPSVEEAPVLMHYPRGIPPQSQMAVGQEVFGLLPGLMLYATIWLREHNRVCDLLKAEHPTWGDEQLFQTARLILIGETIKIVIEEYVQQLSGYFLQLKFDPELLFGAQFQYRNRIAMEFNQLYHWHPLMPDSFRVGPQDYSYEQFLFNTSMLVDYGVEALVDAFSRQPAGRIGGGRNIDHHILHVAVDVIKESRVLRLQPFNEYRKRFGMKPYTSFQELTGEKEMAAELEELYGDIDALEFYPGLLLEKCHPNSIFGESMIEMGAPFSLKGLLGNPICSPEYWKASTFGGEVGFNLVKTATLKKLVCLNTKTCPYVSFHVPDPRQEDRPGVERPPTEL
Experimental: Method 2: Prostaglandin Synthesis
0.3 ml of 0.03M potassium phosphate buffer of pH=8.0 contains 0.5 mg of enzyme (from seminal vesicles of sheep) (Biochemistry 10 (1971) 2372) or homogenate of the inner kidney medulla (Life Sciences 26 (1980) 765), 2.75 μg of ^14 C-arachidonic acid (0.5 μCi) and 0.5 mg of stimulator, and, if appropriate, 0.5 mg of stabilizer substance (see Table 1). After 10 minutes' incubation at 37° C., the reaction is stopped with 0.05 ml of 1.2M citric acid and the mixture is extracted with twice 0.5 ml of ethyl acetate, the combined extracts are freed of solvent, and the residue is dissolved in 0.2 ml of methanol, diluted 1:1 with water and separated by HPLC (nucleosil C-18 column, 125×4.6 mm, from Bischoff, Leonberg, Germany, solvent 300 ml of acetonitrile, 700 ml of water and 1 ml of glacial acetic acid and after 30 minutes pure methanol). The separation of the radioactive fractions is followed by a monitor (LB 504 from Berthold, Wildbad, Germany). The products formed, such as 6-keto-prostaglandin F2alpha, prostaglandin E2, prostaglandin F2alpha and prostaglandin D2, are separated under these conditions.
The prostaglandins PGE2, PGF2 alpha and PGD2 as products from arachidonic acid where quantified by means of method 2, and the sum was related as "total prostaglandin" to 100%. The quantity of "total prostaglandin" formed without the addition of a stimulator was set at f=1; the quantity formed after stimulation was related thereto. f=2 or f=3 therefore means twice or three times the stimulation under the conditions of method 2. The stability of the sample was investigated by means of method 1 (right-hand column). […] Values greater than 25-28% therefore represent a stabilization, and values smaller than 25-28% represent a destabilization. Example No. 1 was carried out without a stimulator. […] The substances test with respect to stabilization (see Method 1 for quantities) were: A) aqueous solution without stabilizer addition, B) ethanolic solution without further addition, C) pyridine solution, D) with rutin, predissolved in dimethyl sulfoxide, dimethyl sulfoxide then stripped off, E) like B) with lecithin, ethanol stripped off, F) like A) with cytochrome c from horse heart (from Boehringer, Mannheim, Germany), G) like A) with methemoglobin (human) (from Sigman, Munich, Germany), H) like A) with bovine serum albumin (from Calbiochem, Frankfurt, Germany), J) like A) or B), but solvent stripped off, K) like J) with cytochrome c, L) like J) with hemoglobin (human) (from Behringwerke, Marburg, Germany), and M) like J) with human serum albumin (from Behringwerke, Marburg, Germany).

[2] = for Stability (% remaining fatty acid by Method 1) / Stabilization (% remaining unsaturated fatty acid by Method 1): 1440 min; for Stability (% of remaining arachidonic acid by Method 1): 24 h 37° C.; for undesired decomposition / byproducts of polyunsaturated fatty acid (arachidonic acid) with added stimulator: aqueous medium, result in words
Experimental: Method 1: Investigation of the Stability of Unsaturated Fatty Acids in the Formulations
The stabilizing action of substances on polyunsaturated fatty acids was investigated as follows:
Test A for Water-Soluble Substances:
0.125 mg of unsaturated fatty acid or Na salt (see tables) (sodium arachidonate, from Sigma, Munich, Germany) is dissolved in 0.05 ml of water. 0.2 ml of aqueous solution which contains 2 mg of stabilizer and can additionally contain 2 mg of stimulator is mixed in (cf. Table 1), 0.1 ml is then taken out immediately, extracted and analysed (see below). Further processing according to modification 1 or 2.
Modification 1 for Aqueous Solutions
After 24 hours incubation at 37° C., 0.1 ml is again taken, extracted and analysed (see below).
Modification 2 for Solid Mixtures (Lyophilisates)
The test solution is lyophilized, the lyophilisate is incubated for 24 hours at 37° C. and then dissolved again in the previous quantity of water, and 0.1 ml is taken, extracted and analysed (see below).
Test B for Water-Insoluble Substances:
0.125 mg of unsaturated fatty acid (arachidonic acid, 5,8,11,14,17-eicosapentaenoic acid or 8,11,14-eicosatrienoic acid, from Sigma, Munich) is dissolved in 0.05 ml of ethanol or dimethyl sulfoxide. 0.2 ml of ethanol (or dimethyl sulfoxide) which contains 2 mg of stabilizer and can additionally contain 2 mg of the stimulator (cf. Table 1) is added thereto, and 0.1 ml is taken immediately and, as below, extracted and analysed. Further treatment according to modification 1 or 2.
Modification 1 for Solutions
After 24 hours' incubation at 37° C., 0.1 ml is again taken, mixed with 0.1 ml of water, extracted and analysed.
Modification 2 for Solid Mixtures
The remaining solution is freed of solvent, incubated for 24 hours at 37° C. and then dissolved again in 0.15 ml of solvent, and 0.1 ml is taken, mixed with 0.1 ml of water, extracted and analysed.
0.05 ml of 1.2M aqueous citric acid solution is added to the samples obtained, and the samples are extracted with twice 0.5 ml of ethyl acetate, the ethyl acetate is removed from the combined extracts and the residue is dissolved in 0.8 ml of methanol and analysed by means of high-pressure liquid chromatography (HPLC) (Rad Pak C-18 column, 100×8 mm, from Waters, Konigstein, Germany, 1.5 ml/minute, solvent 800 ml of methanol, 200 ml of water and 0.1 ml of glacial acetic acid). The separation is monitored with a commercially available UV detector at 206 nm.
The prostaglandins PGE2, PGF2 alpha and PGD2 as products from arachidonic acid where quantified by means of method 2, and the sum was related as "total prostaglandin" to 100%. The quantity of "total prostaglandin" formed without the addition of a stimulator was set at f=1; the quantity formed after stimulation was related thereto. f=2 or f=3 therefore means twice or three times the stimulation under the conditions of method 2. The stability of the sample was investigated by means of method 1 (right-hand column). […] Values greater than 25-28% therefore represent a stabilization, and values smaller than 25-28% represent a destabilization. Example No. 1 was carried out without a stimulator.

[3] = Table 1, share of total prostaglandin (=100%)
[4] = seminal vesicle enzyme, 10 min, pH 8
[5] = A) aqueous solution without stabilizer addition
[6] = B) ethanolic solution without further addition
[7] = F) like A) with cytochrome c from horse heart
[8] = L) like J) with hemoglobin (human)
[9] = H) like A) with bovine serum albumin
[10] = Table 2, share of total prostaglandin

Row | Compound | PGD2 % [1, 3] [%] | PGE2 % [1, 3] [%] | PGF2alpha % [1, 3] [%] | relative total prostaglandin f [1, 4] | PGD2 % [1, 10] [%] | PGE2 % [1, 10] [%] | PGF2alpha % [1, 10] [%] | Stabilization (% remaining unsaturated fatty acid by Method 1) [2] [%] | also measured
1 | O=C(O)CCc1c[nH]c2ccc(O)cc12 [Example 21] | 17 | 80 | 3 | 5.7 |  |  |  |  | Stability (% remaining fatty acid by Method 1) [2]: 96%
2 | NCCc1c[nH]c2ccc(O)cc12 [Example 22] | 20 | 75 | 5 | 10.6 |  |  |  |  | Stability (% of remaining arachidonic acid by Method 1) [2, 5]: 16%; Stability (% of remaining arachidonic acid by Method 1) [2, 6]: 99%; Stability (% of remaining arachidonic acid by Method 1) ([2]; E) like B) with lecithin, ethanol stripped off): 96%; Stability (% of remaining arachidonic acid by Method 1) [2, 7]: 98%; Stability (% of remaining arachidonic acid by Method 1) ([2]; K) like J) with cytochrome c): 98%; Stability (% of remaining arachidonic acid by Method 1) [2, 8]: 100%
3 | NCCc1c[nH]c2ccccc12 [Example 23] | 16 | 81 | 3 |  |  |  |  |  | Stability (% of remaining arachidonic acid by Method 1) [2, 5]: 20%; Stability (% of remaining arachidonic acid by Method 1) ([2]; D) with rutin, predissolved in dimethyl sulfoxide, dimethyl sulfoxide then stripped off): 100%; Stability (% of remaining arachidonic acid by Method 1) [2, 7]: 98%; Stability (% of remaining arachidonic acid by Method 1) ([2]; G) like A) with methemoglobin (human)): 97%; Stability (% of remaining arachidonic acid by Method 1) [2, 9]: 100%
4 | O=C1N[C@@H](Cc2c[nH]c3ccccc23)C(=O)N[C@H]1Cc1ccc(O)cc1 [Example 32, Cyclo-TrpTyr] |  |  |  |  |  |  |  |  | Stimulation ([1]; Table 1, result in words): positive; Stabilization [2]: positive
5 | N[C@@H](CS)C(=O)O [Example 33, L-cysteine] | 27 | 56 | 17 |  |  |  |  |  | Stability (% remaining fatty acid by Method 1) [2]: 94%
6 | N[C@@H](CCC(=O)N[C@@H](CS)C(=O)NCC(=O)O)C(=O)O [Example 35, Glutathione] | 0 | 100 | 0 | 13.5 |  |  |  |  | Stability (% of remaining arachidonic acid by Method 1) [2, 5]: 0%; Stability (% of remaining arachidonic acid by Method 1) [2, 6]: 80%; Stability (% of remaining arachidonic acid by Method 1) ([2]; C) pyridine solution): 0%; Stability (% of remaining arachidonic acid by Method 1) [2, 9]: 91%; Stability (% of remaining arachidonic acid by Method 1) ([2]; J) like A) or B), but solvent stripped off): 0%; Stability (% of remaining arachidonic acid by Method 1) [2, 8]: 92%; undesired decomposition / byproducts of polyunsaturated fatty acid (arachidonic acid) with added stimulator [2]: markedly greater quantity
7 | O=C(O)CCCCC1CCSS1 (stereo not shown) [Example 36, Lipoic acid] | 8 | 43 | 49 |  |  |  |  |  | stimulation of prostaglandin synthesis with much smaller quantities of undesired byproducts ([1]; mixtures with polyunsaturated fatty acids such as arachidonic acid, result in words): stimulated; undesired decomposition / byproducts of polyunsaturated fatty acid (arachidonic acid) with added stimulator [2]: fully suppressed
8 | COC1=C(OC)C(=O)C(C/C=C(\C)CC/C=C(\C)CC/C=C(\C)CC/C=C(\C)CC/C=C(\C)CC/C=C(\C)CC/C=C(\C)CC/C=C(\C)CC/C=C(\C)CCC=C(C)C)=C(C)C1=O [Example 47, Vitamin Q10, reference compound] |  |  |  | 0.8 | 14 | 8 | 78 | 8 | 
9 | O=C(CCc1ccc(O)cc1)c1c(O)cc(O)cc1O[C@@H]1O[C@H](CO)[C@@H](O)[C@H](O)[C@H]1O [Example 53, Phlorizin] |  |  |  | 3 | 18 | 80 | 2 | 97 | 
10 | C[C@@H]1O[C@@H](O[C@H]2[C@H](Oc3cc(O)c4c(c3)O[C@H](c3ccc(O)cc3)CC4=O)O[C@H](CO)[C@@H](O)[C@@H]2O)[C@H](O)[C@H](O)[C@H]1O [Example 54, Naringin] |  |  |  | 2 | 15 | 83 | 2 | 96 | 
11 | O=C1C[C@@H](c2ccc(O)cc2)Oc2cc(O)cc(O)c21 [Example 55, Naringenin] |  |  |  | 1.5 | 20 | 80 | 0 | 96 | 
12 | O=c1c(O)c(-c2ccc(O)cc2)oc2cc(O)cc(O)c12 [Example 56, Kaempferol] |  |  |  | 0.5 | 13 | 76 | 11 | 98 | 
13 | Oc1cc(O)c2c(c1)O[C@H](c1ccc(O)c(O)c1)[C@H](O)C2 [Example 59, Epicatechin] |  |  |  |  | 12 | 71 | 17 | 89 | 
14 | TrpMetAspPhe [Example 28] | 20 | 73 | 7 |  |  |  |  |  | relative total prostaglandin f ([1]; Table 1, 0.5 mg stimulator, 10 min 37° C., without stimulator f=1): 11.8; Stability (% remaining fatty acid by Method 1) [2]: 97%
